Test results from US4898940A (priority 1989, dated 1990).
Values after ≈ are worked out from the molar mass of the structure shown.

Assays:
[1] = Acute toxicity, single intraperitoneal administration; settings: male ddY mice
Solubility in solvents = assay type: physicochemical
Piricularia oryzae = assay type: cell-based; settings: Piricularia oryzae D 91; Sabouraud dextrose agar
[2] = tested on: gram-positive and gram-negative bacteria; assay: In vitro antibacterial activity; assay type: cell-based
From the text: (§1) Nutrient agar (Eiken) was used for bacteria and Sabouraud dextrose agar (Difco) for fungi. The inoculum size was adjusted to 10^4 CFU/ml for bacteria and 10^5 -10^7 CFU/ml for fungi.

[3] = tested on: Lymphocytic leukemia P388; assay: Antitumor activity against P388 leukemia in mice; assay type: in vivo, CDF1 and BDF1 mice; settings: for T/C % of MST: P388 leukemia; for antitumor activity against P388 leukemia (in words): ip
Procedure: Lymphocytic leukemia P388 (CDF1 and BDF1 mice) and lymphoid leukemia L1210 (BDF1 mice) were inoculated by intraperitoneal injection of 0.8 ml diluted ascitic fluid containing 10^6 and 10^5 cells per mouse, respectively. Melanotic melanoma B16 (BDF1 mice) were implanted 0.5 ml of a 10% tumor brei intraperitoneally. Test materials were dissolved in 0.9% saline containing 10% dimethyl sulfoxide and graded doses of them were administered to mice intraperitoneally 24 hours after tumor implantation. Either olivomycin (NSC 38270) or mitomycin C was comparatively tested as a reference compound in the experiments.
Values for percentage ratios of 125 and above indicate significant antitumor effect.

[4] = tested on: pathogenic fungi such as Candida albicans, Cryptococcus neoformans, Aspergillus fumigatus, Trichlophyton mentagrophytes and Mucor spinosus; assay: In vitro antifungal activity; assay type: cell-based; settings: clinically important pathogenic fungi
From the text: as §1

Enterobacter cloacae = assay: MIC, serial agar dilution (nutrient agar); assay type: cell-based; settings: Enterobacter cloacae A9659
From the text: as §1

Serratia marcescens = assay: MIC, serial agar dilution (nutrient agar); assay type: cell-based; settings: Serratia marcescens A20222
From the text: as §1

[5] = tested on: Staphylococcus epidermidis; assay: MIC, serial agar dilution (nutrient agar); assay type: cell-based
From the text: as §1

Pseudomonas aeruginosa = assay: MIC, serial agar dilution (nutrient agar); assay type: cell-based; settings: Pseudomonas aeruginosa A9930
From the text: as §1

Micrococcus luteus = assay: MIC, serial agar dilution (nutrient agar); assay type: cell-based; settings: Micrococcus luteus PCI-1001
From the text: as §1

Streptococcus faecalis = assay: MIC, serial agar dilution (nutrient agar); assay type: cell-based; settings: Streptococcus faecalis A9612
From the text: as §1

Bacillus subtilis = assay: MIC, serial agar dilution (nutrient agar); assay type: cell-based; settings: Bacillus subtilis PCI-219
From the text: as §1

Escherichia coli = assay: MIC, serial agar dilution (nutrient agar); assay type: cell-based; settings: Escherichia coli NIHJ
From the text: as §1

Proteus vulgaris = assay: MIC, serial agar dilution (nutrient agar); assay type: cell-based; settings: Proteus vulgaris A9436
From the text: as §1

Klebsiella pneumoniae = assay: MIC, serial agar dilution (nutrient agar); assay type: cell-based; settings: Klebsiella pneumoniae D-11
From the text: as §1

Staphylococcus aureus = assay: MIC, serial agar dilution (nutrient agar); assay type: cell-based
From the text: as §1

Proteus mirabilis = assay: MIC, serial agar dilution (nutrient agar); assay type: cell-based; settings: Proteus mirabilis A9554
From the text: as §1

Morganella morganii = assay: MIC, serial agar dilution (nutrient agar); assay type: cell-based; settings: Morganella morganii A9553
From the text: as §1

[6] = tested on: Trichophyton mentagrophytes; assay: MIC, serial agar dilution (Sabouraud dextrose agar); assay type: cell-based
From the text: as §1

Petriellidium boydii = assay: as above; assay type: cell-based; settings: Petriellidium boydii IFO 8073
From the text: as §1

Aspergillus fumigatus = assay: as above; assay type: cell-based
From the text: as §1

Blastomyces dermaditis = assay: as above; assay type: cell-based; settings: Blastomyces dermaditis IFO 8144
From the text: as §1

Mucor spinosus = assay: as above; assay type: cell-based; settings: Mucor spinosus IFO 5317
From the text: as §1

Candida albicans = assay: as above; assay type: cell-based
From the text: as §1

Cryptococcus neoformans = assay: as above; assay type: cell-based
From the text: as §1

Sporothrix schenckii = assay: as above; assay type: cell-based; settings: Sporothrix schenckii IFO 8158
From the text: as §1

Fusarium moniliforme = assay: as above; assay type: cell-based; settings: Fusarium moniliforme A 2284
From the text: as §1

Aspergillus flavus = assay: as above; assay type: cell-based; settings: Aspergillus flavus FA 21436
From the text: as §1

[7] = 0.3 mg/kg/day ip, schedule 1 (once daily on days 1, 4 and 7)
[8] = 3 mg/kg/day ip, schedule 1 (once daily on days 1, 4 and 7)
[9] = treatment schedule 1 (once daily on days 1, 4 and 7)
[10] = Staphylococcus epidermidis A22152
[11] = Staphylococcus epidermidis D153
[12] = Trichophyton mentagrophytes #4329
[13] = Trichophyton mentagrophytes D 155
[14] = Cryptococcus neoformans IAM 4514

With `CCCCCCCCCC=CC=CC(=O)NC(C(=O)NC1CC(O)CCNC(=O)C=CC(C)NC1=O)C(C)O` (stereo not shown) [BU-2867T C] the LD50 [1] was 25 mg/kg, the “solubility in chloroform, acetonitrile and ethyl acetate” value (Solubility in solvents) was “slightly soluble” and the “solubility in methanol, ethanol, n-butanol and dimethyl sulfoxide” value (Solubility in solvents) was “readily soluble”. The “solubility in n-hexane and water” value (Solubility in solvents) was “practically insoluble”, the MIC (Piricularia oryzae) was over 50 mg/L and the “growth inhibition of gram-positive and gram-negative bacteria (in words)” value ([2]; at 50 mcg/ml) was “did not inhibit the growth”. For the same compound, the “T/C % of MST” value ([3]; 0.031 mg/kg/day ip, schedule 2 (once daily on days 1 through 9)) was 100%, the “T/C % of MST” value ([3]; 0.063 mg/kg/day ip, schedule 2 (once daily on days 1 through 9)) was 123% and the “T/C % of MST” value ([3]; 0.13 mg/kg/day ip, schedule 2 (once daily on days 1 through 9)) was 153%. The “T/C % of MST” value ([3]; 0.25 mg/kg/day ip, schedule 2 (once daily on days 1 through 9)) was 159%, the “T/C % of MST” value [3, 7] was 130% and the “T/C % of MST” value ([3]; 0.5 mg/kg/day ip, schedule 2 (once daily on days 1 through 9)) was 175%. The “T/C % of MST” value ([3]; 1 mg/kg/day ip, schedule 2 (once daily on days 1 through 9)) was 189%, the “T/C % of MST” value ([3]; 2 mg/kg/day ip, schedule 2 (once daily on days 1 through 9)) was 234% and the “T/C % of MST” value [3, 8] was 155%. The “antitumor activity against P388 leukemia (in words)” value (“antitumor activity” below) [3, 9] was “showed antitumor activity”, the “antitumor activity” value ([3]; treatment schedule 2 (once daily on days 1 through 9)) was “highly active” and the “antifungal activity (in words)” value [4] was “potent antifungal activity”. The MIC (Enterobacter cloacae) was over 50 mg/L, the MIC (Serratia marcescens) was over 50 mg/L and the MIC [5, 10] was over 50 mg/L. The MIC [5, 11] was over 50 mg/L, the MIC (Pseudomonas aeruginosa) was over 50 mg/L and the MIC (Micrococcus luteus) was over 50 mg/L. The MIC (Streptococcus faecalis) was over 50 mg/L, the MIC (Bacillus subtilis) was over 50 mg/L and the MIC (Escherichia coli) was over 50 mg/L. For the same compound, the MIC (Proteus vulgaris) was over 50 mg/L, the MIC (Klebsiella pneumoniae) was over 50 mg/L and the MIC (Staphylococcus aureus; Staphyloccus aureus Bx-1633) was over 50 mg/L. For the same compound, the MIC (Staphylococcus aureus; Staphylococcus aureus 209P) was over 50 mg/L, the MIC (Staphylococcus aureus; Staphylococcus aureus Smith) was over 50 mg/L and the MIC (Proteus mirabilis) was over 50 mg/L. For the same compound, the MIC (Morganella morganii) was over 50 mg/L, the MIC [6, 12] was 6.3 mg/L (≈ 11.5 µM) and the MIC [6, 13] was 1.6 mg/L (≈ 2.92 µM). It also gave an MIC (Petriellidium boydii) of 50 mg/L (≈ 91.1 µM), an MIC (Aspergillus fumigatus; Aspergillus fumigatus IAM 2034) of 0.8 mg/L (≈ 1.46 µM) and an MIC (Aspergillus fumigatus; Aspergillus fumigatus IAM 2530) of 0.8 mg/L (≈ 1.46 µM). The MIC (Blastomyces dermaditis) was over 50 mg/L, the MIC (Mucor spinosus) was 0.2 mg/L (≈ 0.364 µM) and the MIC (Candida albicans; Candida albicans A 9540) was 0.8 mg/L (≈ 1.46 µM). For the same compound, the MIC (Candida albicans; Candida albicans IAM 4888) was 1.6 mg/L (≈ 2.92 µM), the MIC (Cryptococcus neoformans; Cryptococcus neoformans D 49) was 3.1 mg/L (≈ 5.65 µM) and the MIC (Cryptococcus neoformans; [14]) was 3.1 mg/L (≈ 5.65 µM). The MIC (Sporothrix schenckii) was over 50 mg/L, the MIC (Fusarium moniliforme) was over 50 mg/L and the MIC (Aspergillus flavus) was 50 mg/L (≈ 91.1 µM).

In the case of `CCCCCC=CCCC=CC=CC(=O)NC(C(=O)NC1CC(O)CCNC(=O)C=CC(C)NC1=O)C(C)O` (stereo not shown) [BU-2867T B], the “solubility in chloroform, acetonitrile and ethyl acetate” value (Solubility in solvents) was “slightly soluble”, the “solubility in methanol, ethanol, n-butanol and dimethyl sulfoxide” value (Solubility in solvents) was “readily soluble” and the “solubility in n-hexane and water” value (Solubility in solvents) was “practically insoluble”. For the same compound, the MIC (Piricularia oryzae) was over 50 mg/L, the “activity against some gram-positive bacteria (in words)” value [2] was “moderate activity” and the “T/C % of MST” value [3, 7] was 120%. For the same compound, the “T/C % of MST” value ([3]; 1 mg/kg/day ip, schedule 1 (once daily on days 1, 4 and 7)) was 140%, the “T/C % of MST” value [3, 8] was 165% and the “antitumor activity” value [3, 9] was “showed antitumor activity”. For the same compound, the “antifungal activity (in words)” value [4] was “somewhat less active than component C”, the MIC (Enterobacter cloacae) was over 50 mg/L and the MIC (Serratia marcescens) was over 50 mg/L. It also gave an MIC [5, 10] of 50 mg/L (≈ 91.5 µM), an MIC [5, 11] of 6.3 mg/L (≈ 11.5 µM) and an MIC (Pseudomonas aeruginosa) of over 50 mg/L. It also gave an MIC (Micrococcus luteus) of 50 mg/L (≈ 91.5 µM), an MIC (Streptococcus faecalis) of over 50 mg/L and an MIC (Bacillus subtilis) of 50 mg/L (≈ 91.5 µM). The MIC (Escherichia coli) was over 50 mg/L, the MIC (Proteus vulgaris) was over 50 mg/L and the MIC (Klebsiella pneumoniae) was over 50 mg/L. It also gave an MIC (Staphylococcus aureus; Staphyloccus aureus Bx-1633) of 50 mg/L (≈ 91.5 µM), an MIC (Staphylococcus aureus; Staphylococcus aureus 209P) of 25 mg/L (≈ 45.7 µM) and an MIC (Staphylococcus aureus; Staphylococcus aureus Smith) of 3.1 mg/L (≈ 5.67 µM). The MIC (Proteus mirabilis) was over 50 mg/L, the MIC (Morganella morganii) was over 50 mg/L and the MIC [6, 12] was 12.5 mg/L (≈ 22.9 µM). For the same compound, the MIC [6, 13] was 12.5 mg/L (≈ 22.9 µM), the MIC (Petriellidium boydii) was over 50 mg/L and the MIC (Aspergillus fumigatus; Aspergillus fumigatus IAM 2034) was 3.1 mg/L (≈ 5.67 µM). The MIC (Aspergillus fumigatus; Aspergillus fumigatus IAM 2530) was 31 mg/L (≈ 56.7 µM), the MIC (Blastomyces dermaditis) was 50 mg/L (≈ 91.5 µM) and the MIC (Mucor spinosus) was 0.8 mg/L (≈ 1.46 µM). It also gave an MIC (Candida albicans; Candida albicans A 9540) of 1.6 mg/L (≈ 2.93 µM), an MIC (Candida albicans; Candida albicans IAM 4888) of 3.1 mg/L (≈ 5.67 µM) and an MIC (Cryptococcus neoformans; Cryptococcus neoformans D 49) of 25 mg/L (≈ 45.7 µM). The MIC (Cryptococcus neoformans; [14]) was 25 mg/L (≈ 45.7 µM), the MIC (Sporothrix schenckii) was over 50 mg/L and the MIC (Fusarium moniliforme) was over 50 mg/L. The MIC (Aspergillus flavus) was 25 mg/L (≈ 45.7 µM).
